Source: ChEMBL document CHEMBL5625170, “Design, synthesis, and biological evaluation of novel penindolone derivatives as potential inhibitors of hemagglutinin-mediated membrane fusion” (Eur J Med Chem, 2023)
The source made the active and inactive calls. The calls are words filed in the database; no cut-off is given here.

Assays:
[1] = Cytotoxicity against dog MDCK cells assessed as cell viability measured after 48 hrs by MTT assay; format: toxicity, cell-based, Canis lupus familiaris
[2] = Selectivity index, ratio of CC50 for cytotoxicity against dog MDCK cells to IC50 for anti-viral activity against Influenza A virus (A/Puerto Rico/8/34 infected in MDCK cells; format: toxicity, cell-based; conditions: read-out: Selectivity Index
Influenza A virus [3] = test: Potency index, ratio of penindolone-IC50 to test compound IC50 for anti-viral activity against Influenza A virus (A/Puerto Rico/8/34) infected in MDCK cells; format: functional
Influenza A virus [4] = test: Anti-viral activity against Influenza A virus H1N1 (A/Virginia09/ATCC1/2009; Vir09) infected in MDCK cells assessed as inhibition of virus cytopathic effect measured after 48 hrs by crystal violet staining based assay; format: functional
Influenza A virus [5] = test: Anti-viral activity against Influenza A virus H1N1 (A/WSN/33; WSN) infected in MDCK cells assessed as inhibition of virus cytopathic effect measured after 48 hrs by crystal violet staining based assay; format: functional
Influenza A virus [6] = test: Anti-viral activity against Influenza virus H3N2 (A/Aichi/2/68; Aichi) infected in MDCK cells assessed as inhibition of virus cytopathic effect measured after 48 hrs by crystal violet staining based assay; format: functional
Influenza B virus = test: Anti-viral activity against Influenza B virus strain (B/Hong Kong/5/72) infected in MDCK cells assessed as inhibition of virus cytopathic effect measured after 48 hrs by crystal violet staining based assay; format: functional
[7] = Cytotoxicity against human A549 cells assessed as cell viability measured after 48 hrs by MTT assay; format: toxicity, cell-based
[8] = Cytotoxicity against african green monkey Vero cells assessed as cell viability measured after 48 hrs by MTT assay; format: toxicity, cell-based; conditions: chlorocebus sabaeus
Influenza A virus [9] = test: Anti-viral activity against Influenza A virus H1N1 (A/Puerto Rico/8/34) infected (at MOI = 3) in MDCK cell assessed as reduction in hemagglutinin titer using chicken RBC measured after 60 mins by hemagglutinin assay; format: functional, organism-based; conditions: H1N1 A/Puerto Rico/8/34, MDCK, 1 h
Influenza A virus [10] = test: Anti-viral activity against Influenza H1N1 virus (A/Virginia09/ATCC1/2009; Vir09) infected (at MOI = 3) in MDCK cell assessed as reduction in hemagglutinin titer using chicken RBC measured after 60 mins by hemagglutinin assay; format: functional, organism-based; conditions: H1N1 A/Virginia09/ATCC1/2009, dose 5-20 µM
Influenza A virus [11] = test: Anti-viral activity against Influenza virus H3N2 (A/Aichi/2/68; Aichi) infected (at MOI = 3) in MDCK cell assessed as reduction in hemagglutinin titer using chicken RBC measured after 60 mins by hemagglutinin assay; format: functional, organism-based; conditions: 1 h
MDCK [12] = test: Reduction in HA2 protein expression in Influenza A virus (A/Puerto Rico/8/34) infected in MDCK cell after 60 mins by Western blot analysis; format: functional, cell-based; conditions: dose 2.5-20 µM
MDCK [13] = test: Reduction in NS1 protein expression in Influenza A virus (A/Puerto Rico/8/34) infected in MDCK cell after 60 mins by Western blot analysis; format: functional, cell-based
MDCK [14] = test: Reduction in NP protein expression in Influenza A virus (A/Puerto Rico/8/34) infected in MDCK cell at 40 uM after 60 mins by Western blot analysis; format: functional, cell-based
[15] = biological target: Hemagglutinin (Influenza A virus (A/Puerto Rico/8/1934(H1N1)), UniProt P03452); test: Binding affinity to Influenza A virus (A/Puerto Rico/8/34) Hemagglutinin by surface plasmon resonance (SPR) assay
Hemagglutinin (Influenza A virus (A/Puerto Rico/8/1934(H1N1)), UniProt P03452), sequence (P03452 whole entry, the tested form may be a part): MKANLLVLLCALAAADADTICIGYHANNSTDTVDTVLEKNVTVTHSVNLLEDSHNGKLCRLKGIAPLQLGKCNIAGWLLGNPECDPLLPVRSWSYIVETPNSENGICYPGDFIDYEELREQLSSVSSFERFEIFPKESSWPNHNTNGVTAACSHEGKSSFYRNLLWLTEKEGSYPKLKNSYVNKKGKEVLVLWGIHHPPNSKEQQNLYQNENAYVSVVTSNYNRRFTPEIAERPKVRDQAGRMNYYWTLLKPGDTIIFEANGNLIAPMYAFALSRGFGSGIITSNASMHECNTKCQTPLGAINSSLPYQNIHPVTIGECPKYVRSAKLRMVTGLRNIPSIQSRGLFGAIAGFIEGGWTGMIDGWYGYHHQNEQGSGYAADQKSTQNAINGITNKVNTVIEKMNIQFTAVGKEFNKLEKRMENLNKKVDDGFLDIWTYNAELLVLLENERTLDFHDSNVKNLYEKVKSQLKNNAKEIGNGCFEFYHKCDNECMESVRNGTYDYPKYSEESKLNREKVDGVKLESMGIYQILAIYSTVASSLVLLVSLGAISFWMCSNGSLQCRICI

[16] = biological target: Hemagglutinin (Influenza A virus (A/Puerto Rico/8/1934(H1N1))) (UniProt P03452); test: Blockade of Influenza A virus (A/Puerto Rico/8/34) Hemagglutinin-mediated membrane fusion in Vero cells expressing PR8 HA assessed as syncytium formation at pH 5 and measured at 15 uM measured after 2 hrs by polykaryon assay; format: cell-based
Hemagglutinin (Influenza A virus (A/Puerto Rico/8/1934(H1N1))), sequence (P03452 whole entry, the tested form may be a part): as above

[17] = biological target: Hemagglutinin (Influenza A virus (A/Puerto Rico/8/1934(H1N1))) (UniProt P03452); test: Blockade of Influenza A virus (A/Puerto Rico/8/34) Hemagglutinin-mediated membrane fusion in Vero cells expressing PR8 HA assessed as syncytium formation at pH 5 by quantitative membrane fusion assay; format: cell-based; conditions: dose 5-40 µM
[18] = biological target: Hemagglutinin (Influenza A virus (A/Puerto Rico/8/1934(H1N1))) (UniProt P03452); test: Inhibition of trypsin-mediated Influenza A virus (A/Puerto Rico/8/34) hemagglutinin protein digestion pretreated at 50 uM for 20 mins at pH 5 followed by treated with trypsin for 30 mins at pH 8.5 by SDS-PAGE/trypsin susceptibility (TS) assay
Influenza A virus [19] = test: In vivo antiviral activity against Influenza A virus (A/Puerto Rico/8/34) infected in BALB/c mouse assessed as increase in mouse survival at 2.5 mg/kg, po once daily treated after 4 hrs of inoculation for 5 days; format: functional, organism-based; conditions: time 5.0 day
Influenza A virus [20] = test: In vivo antiviral activity against Influenza A virus (A/Puerto Rico/8/34) infected in BALB/c mouse assessed as increase in mouse survival at 2.5 mg/kg, po once daily treated after 4 hrs of inoculation for 14 days relative to control; format: functional; conditions: A/Puerto Rico/8/34, 336 h, time 14 day
[21] = Toxicity in BALB/c mouse infected with Influenza A virus (A/Puerto Rico/8/34) assessed as death at 2.5 mg/kg, po after 8 days; format: organism-based; conditions: in vivo, 192 h, time 8 day
[22] = Toxicity in BALB/c mouse infected with Influenza A virus (A/Puerto Rico/8/34) assessed as decrease in body weight at 2.5 mg/kg, po upto 8 days; format: organism-based; conditions: in vivo, 192 h, time < 8 day
Influenza A virus [23] = test: In vivo antiviral activity against Influenza A virus (A/Puerto Rico/8/34) infected in BALB/c mouse assessed as decrease in pulmonary viral titers at 2.5 to 5 mg/kg, po once daily treated after 4 hrs of inoculation for 4 days relative to control; format: functional, organism-based; conditions: dose 2.5-5 mg/kg, time 4.0 day
Influenza A virus [24] = test: (§1) In vivo antiviral activity against Influenza A virus (A/Puerto Rico/8/34) infected in BALB/c mouse assessed as intact columnar epithelia in bronchiole without inflammatory cell infiltration at 5 mg/kg, po once daily treated after 4 hrs of inoculation for 4 days relative to control by HE staining based histopathological analysis; format: functional, organism-based
Influenza A virus [25] = test: In vivo antiviral activity against Influenza A virus (A/Puerto Rico/8/34) infected in BALB/c mouse assessed as increase in mouse survival at 10 mg/kg, po once daily treated after 4 hrs of inoculation for 14 days relative to control; format: functional; conditions: A/Puerto Rico/8/34, 336 h, time 14 day
[26] = Toxicity in BALB/c mouse infected with Influenza A virus (A/Puerto Rico/8/34) assessed as death at 10 mg/kg, po after 11 days; format: organism-based; conditions: in vivo, 264 h, time 11 day
[27] = Toxicity in BALB/c mouse infected with Influenza A virus (A/Puerto Rico/8/34) assessed as decrease in body weight at 10 mg/kg, po upto 8 days; format: organism-based; conditions: in vivo, 192 h, time < 8 day
Influenza A virus [28] = test: as §1, with “10” for “5”; format: functional, organism-based
[29] = biological target: Hemagglutinin (Influenza A virus (A/Puerto Rico/8/1934(H1N1))) (UniProt P03452); test: Blockade of Influenza A virus (A/Puerto Rico/8/34) Hemagglutinin-mediated membrane fusion in Vero cells expressing PR8 HA assessed as syncytium formation at pH 5 and measured at 20 uM measured after 2 hrs by polykaryon assay; format: cell-based
[30] = biological target: Hemagglutinin (Influenza A virus (A/Puerto Rico/8/1934(H1N1))) (UniProt P03452); test: Blockade of Influenza A virus (A/Puerto Rico/8/34) Hemagglutinin-mediated membrane fusion in Vero cells expressing PR8 HA assessed as syncytium formation at pH 5 at 5 to 20 uM by quantitative membrane fusion assay; format: cell-based; conditions: dose 5-20 µM

SMILES: CC(=O)c1cc(C)c(O)c(Cc2[nH]c3ccc(-c4c5ccccc5cc5ccccc45)cc3c2Cc2c(O)c(C)cc(C(C)=O)c2O)c1O
- CC50 at 48 h [1]: > 300 µM
- selectivity ratio [2]: > 44.8
- Ratio IC50 (Influenza A virus [3]): 3.8
- inhibition (INH) (Influenza A virus [4]): 13.5%
- inhibition (INH) (Influenza A virus [5]): 5.6%
- inhibition (INH) (Influenza A virus [6]): 8.7%
- inhibition (INH) (Influenza B virus): 3.4%
- CC50 at 48 h [7]: 180 µM
- CC50 at 48 h [8]: 1350 µM
- IC50 (Influenza A virus [9]): < 5 µM
- inhibition (Influenza A virus [10]): Dose-Dependent Effect
- IC50 (Influenza A virus [11]): < 10 µM
- inhibition (MDCK [12]): Dose-Dependent Effect
- inhibition (MDCK [13]): Dose-Dependent Effect
- inhibition (MDCK [14]): Active
- Kd [15]: 6.4 µM
- inhibition [16]: Active
- inhibition [17]: Dose-Dependent Effect
- inhibition [18]: Active
- Activity (Influenza A virus [19]): Active
- survival at 2.5 mg/kg (Influenza A virus [20]): 70%
- Activity [21]: Toxic
- Activity [22]: Non-Toxic
- Activity (Influenza A virus [23]): Active
- Activity (Influenza A virus [24]): Active

SMILES: CCOC(=O)C1=C[C@@H](OC(CC)CC)[C@H](NC(C)=O)[C@@H](N)C1 [OSELTAMIVIR]
- CC50 at 48 h [1]: > 300 µM
- selectivity ratio [2]: > 26.3
- survival at 10 mg/kg (Influenza A virus [25]): 80%
- Activity [26]: Non-Toxic
- Activity [27]: Toxic
- Activity (Influenza A virus [28]): Active

SMILES: CCOC(=O)c1c(CSc2ccccc2)n(C)c2cc(Br)c(O)c(CN(C)C)c12 [UMIFENOVIR]
- Kd [15]: 51.4 µM

SMILES: CC(=O)c1cc(C)c(O)c(Cc2[nH]c3ccccc3c2Cc2c(O)c(C)cc(C(C)=O)c2O)c1O
- CC50 at 48 h [1]: > 300 µM
- selectivity ratio [2]: > 11.8
- Kd [15]: 8.4 µM
- inhibition [29]: Active
- inhibition [30]: Active

SMILES: CC(=O)c1cc(C)c(O)c(Cc2[nH]c3ccc(-c4ccc5ncccc5c4)cc3c2Cc2c(O)c(C)cc(C(C)=O)c2O)c1O
- CC50 at 48 h [1]: > 300 µM
- selectivity ratio [2]: > 16.2

SMILES: CC(=O)c1cc(C)c(O)c(Cc2[nH]c3cc(-c4csc5ccccc45)ccc3c2Cc2c(O)c(C)cc(C(C)=O)c2O)c1O
- CC50 at 48 h [1]: > 300 µM
- selectivity ratio [2]: > 14.4
